Measurements as given in ChEMBL document CHEMBL1909046, “DrugMatrix in vitro pharmacology data”.
Throughout, for Ki: in other assays of this panel Not Active means under 50% inhibition at 10 µM.

The compounds below were run against Melanocortin receptor 3 (Homo sapiens, UniProt P41968). Details: hek293.
Melanocortin receptor 3, sequence (P41968 whole entry): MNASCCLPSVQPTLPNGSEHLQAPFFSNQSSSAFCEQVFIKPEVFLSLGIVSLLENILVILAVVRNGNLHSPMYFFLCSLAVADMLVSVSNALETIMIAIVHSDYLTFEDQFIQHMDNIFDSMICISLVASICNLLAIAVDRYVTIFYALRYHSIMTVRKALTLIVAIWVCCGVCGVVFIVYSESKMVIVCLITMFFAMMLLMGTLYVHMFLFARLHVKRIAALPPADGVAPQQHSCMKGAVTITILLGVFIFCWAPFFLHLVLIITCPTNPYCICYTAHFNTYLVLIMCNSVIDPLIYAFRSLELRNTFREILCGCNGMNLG
Assay type: cell membranes, HEK293, Membrane
With `CCO` [ALCOHOL] the IC50 was “Not Active”.
For `C[C@H](C(=O)O)c1ccc2oc(-c3ccc(F)cc3)nc2c1` [FLUNOXAPROFEN], the IC50 was “Not Active”.
For `O=C(O)c1ccccc1` [BENZOIC ACID], the IC50 was “Not Active”.
`CN(CCOc1ccc(C[C@H](Nc2ccccc2C(=O)c2ccccc2)C(=O)O)cc1)c1ccccn1` was tested, and the IC50 was “Not Active”.
With `O=c1[nH]cnc2c1ncn2[C@H]1CC[C@@H](CO)O1` [DIDANOSINE] the IC50 was “Not Active”.
With `CC(C)(c1ccc(O)cc1)c1ccc(O)cc1` [BISPHENOL A] the IC50 was “Not Active”.
For `ClC1=C(Cl)[C@]2(Cl)[C@@H]3[C@@H]4C[C@@H]([C@H]5O[C@@H]45)[C@@H]3[C@@]1(Cl)C2(Cl)Cl` [DIELDRIN], the IC50 was “Not Active”.
With `C[C@]12CC[C@@H](O)C[C@@H]1CC[C@@H]1[C@@H]2CC[C@]2(C)C(=O)CC[C@@H]12` [ANDROSTERONE] the IC50 was “Not Active”.

These compounds were tested against T1, Cytochrome P450 1A2 (Homo sapiens, UniProt P05177). Details: bti-tn-5b1-4.
T1 sequence (P05177 whole entry): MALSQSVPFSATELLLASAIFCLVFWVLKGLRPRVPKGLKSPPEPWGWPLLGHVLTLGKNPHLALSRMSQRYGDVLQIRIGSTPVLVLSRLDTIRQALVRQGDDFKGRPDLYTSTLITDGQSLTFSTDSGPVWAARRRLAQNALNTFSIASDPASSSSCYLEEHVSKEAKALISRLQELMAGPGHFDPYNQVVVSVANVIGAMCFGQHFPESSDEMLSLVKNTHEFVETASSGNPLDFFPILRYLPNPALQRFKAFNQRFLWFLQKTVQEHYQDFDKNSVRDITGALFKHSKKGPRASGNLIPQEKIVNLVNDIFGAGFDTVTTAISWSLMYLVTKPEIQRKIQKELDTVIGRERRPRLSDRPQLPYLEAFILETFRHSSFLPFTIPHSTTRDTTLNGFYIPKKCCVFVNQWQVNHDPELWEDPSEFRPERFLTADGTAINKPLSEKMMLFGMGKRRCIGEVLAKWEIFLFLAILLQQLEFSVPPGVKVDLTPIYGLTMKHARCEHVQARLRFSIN
For `CCO` [ALCOHOL], the IC50 was “Not Active” and the Ki was “Not Active”.
`C[C@H](C(=O)O)c1ccc2oc(-c3ccc(F)cc3)nc2c1` [FLUNOXAPROFEN] was tested, and the IC50 was “Not Active” and the Ki was “Not Active”.
With `O=C(O)c1ccccc1` [BENZOIC ACID] the IC50 was “Not Active” and the Ki was “Not Active”.
For `CN(CCOc1ccc(C[C@H](Nc2ccccc2C(=O)c2ccccc2)C(=O)O)cc1)c1ccccn1`, the IC50 was “Not Active” and the Ki was “Not Active”.
In the case of `O=c1[nH]cnc2c1ncn2[C@H]1CC[C@@H](CO)O1` [DIDANOSINE], the IC50 is reported as “Not Active” and the Ki is reported as “Not Active”.
With `CC(C)(c1ccc(O)cc1)c1ccc(O)cc1` [BISPHENOL A] the IC50 was “Not Active” and the Ki was “Not Active”.
With `ClC1=C(Cl)[C@]2(Cl)[C@@H]3[C@@H]4C[C@@H]([C@H]5O[C@@H]45)[C@@H]3[C@@]1(Cl)C2(Cl)Cl` [DIELDRIN] the IC50 was “Not Active” and the Ki was “Not Active”.
In the case of `C[C@]12CC[C@@H](O)C[C@@H]1CC[C@@H]1[C@@H]2CC[C@]2(C)C(=O)CC[C@@H]12` [ANDROSTERONE], the IC50 is reported as “Not Active” and the Ki is reported as “Not Active”.

These compounds were tested against Carbonic anhydrase 2 (Homo sapiens, UniProt P00918) (assay: DRUGMATRIX: Carbonic Anhydrase II enzyme inhibition (substrate: 4-Nitrophenyl acetate (4-NPA))). Details: erythrocyte; Not Active = under 50% inhibition at 10 µM.
Assay type: tissue-based, Erythrocyte
`CCO` [ALCOHOL] was tested, and the IC50 was “Not Active”.
With `C[C@H](C(=O)O)c1ccc2oc(-c3ccc(F)cc3)nc2c1` [FLUNOXAPROFEN] the IC50 was “Not Active”.
In the case of `O=C(O)c1ccccc1` [BENZOIC ACID], the IC50 is reported as “Not Active”.
With `CN(CCOc1ccc(C[C@H](Nc2ccccc2C(=O)c2ccccc2)C(=O)O)cc1)c1ccccn1` the IC50 was “Not Active”.
`O=c1[nH]cnc2c1ncn2[C@H]1CC[C@@H](CO)O1` [DIDANOSINE] was tested, and the IC50 was “Not Active”.
With `CC(C)(c1ccc(O)cc1)c1ccc(O)cc1` [BISPHENOL A] the IC50 was “Not Active”.
For `ClC1=C(Cl)[C@]2(Cl)[C@@H]3[C@@H]4C[C@@H]([C@H]5O[C@@H]45)[C@@H]3[C@@]1(Cl)C2(Cl)Cl` [DIELDRIN], the IC50 was “Not Active”.
With `C[C@]12CC[C@@H](O)C[C@@H]1CC[C@@H]1[C@@H]2CC[C@]2(C)C(=O)CC[C@@H]12` [ANDROSTERONE] the IC50 was “Not Active”.

Each compound was assayed against T2, 3-hydroxy-3-methylglutaryl-coenzyme A reductase (Homo sapiens, UniProt P04035). Details: not given.
T2 sequence (P04035 whole entry): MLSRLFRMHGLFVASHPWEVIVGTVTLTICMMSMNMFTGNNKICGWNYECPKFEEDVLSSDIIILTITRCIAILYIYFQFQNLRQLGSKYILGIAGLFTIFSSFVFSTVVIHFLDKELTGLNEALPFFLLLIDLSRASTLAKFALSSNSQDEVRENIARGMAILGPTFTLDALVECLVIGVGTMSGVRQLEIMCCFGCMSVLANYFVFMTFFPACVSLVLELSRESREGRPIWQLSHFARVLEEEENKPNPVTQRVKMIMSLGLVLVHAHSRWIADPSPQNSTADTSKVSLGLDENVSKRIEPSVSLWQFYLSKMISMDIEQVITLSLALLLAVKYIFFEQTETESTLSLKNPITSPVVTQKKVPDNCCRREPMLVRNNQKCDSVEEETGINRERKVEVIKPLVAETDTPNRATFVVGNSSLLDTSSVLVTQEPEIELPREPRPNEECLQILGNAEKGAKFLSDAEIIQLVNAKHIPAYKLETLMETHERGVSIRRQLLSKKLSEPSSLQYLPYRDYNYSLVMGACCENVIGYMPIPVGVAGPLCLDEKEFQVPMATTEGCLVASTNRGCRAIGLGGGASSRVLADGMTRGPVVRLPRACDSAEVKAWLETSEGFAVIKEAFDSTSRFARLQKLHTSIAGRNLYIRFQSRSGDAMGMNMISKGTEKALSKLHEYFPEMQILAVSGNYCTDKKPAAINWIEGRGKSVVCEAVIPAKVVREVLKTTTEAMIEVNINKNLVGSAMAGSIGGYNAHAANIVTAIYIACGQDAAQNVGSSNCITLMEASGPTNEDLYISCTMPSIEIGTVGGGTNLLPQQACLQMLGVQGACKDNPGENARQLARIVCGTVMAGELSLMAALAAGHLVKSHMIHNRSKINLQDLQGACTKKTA
Parameters: species or system Escherichia coli
`CCO` [ALCOHOL] was tested, and the IC50 was “Not Active”.
`C[C@H](C(=O)O)c1ccc2oc(-c3ccc(F)cc3)nc2c1` [FLUNOXAPROFEN] was tested, and the IC50 was “Not Active”.
With `O=C(O)c1ccccc1` [BENZOIC ACID] the IC50 was “Not Active”.
With `CN(CCOc1ccc(C[C@H](Nc2ccccc2C(=O)c2ccccc2)C(=O)O)cc1)c1ccccn1` the IC50 was “Not Active”.
For `O=c1[nH]cnc2c1ncn2[C@H]1CC[C@@H](CO)O1` [DIDANOSINE], the IC50 was “Not Active”.
`CC(C)(c1ccc(O)cc1)c1ccc(O)cc1` [BISPHENOL A] was tested, and the IC50 was “Not Active”.
In the case of `ClC1=C(Cl)[C@]2(Cl)[C@@H]3[C@@H]4C[C@@H]([C@H]5O[C@@H]45)[C@@H]3[C@@]1(Cl)C2(Cl)Cl` [DIELDRIN], the IC50 is reported as “Not Active”.
`C[C@]12CC[C@@H](O)C[C@@H]1CC[C@@H]1[C@@H]2CC[C@]2(C)C(=O)CC[C@@H]12` [ANDROSTERONE] was tested, and the IC50 was “Not Active”.

These compounds were tested against 5-hydroxytryptamine receptor 2B (Homo sapiens, UniProt P41595). Details: cho-k1.
5-hydroxytryptamine receptor 2B, sequence (P41595 whole entry): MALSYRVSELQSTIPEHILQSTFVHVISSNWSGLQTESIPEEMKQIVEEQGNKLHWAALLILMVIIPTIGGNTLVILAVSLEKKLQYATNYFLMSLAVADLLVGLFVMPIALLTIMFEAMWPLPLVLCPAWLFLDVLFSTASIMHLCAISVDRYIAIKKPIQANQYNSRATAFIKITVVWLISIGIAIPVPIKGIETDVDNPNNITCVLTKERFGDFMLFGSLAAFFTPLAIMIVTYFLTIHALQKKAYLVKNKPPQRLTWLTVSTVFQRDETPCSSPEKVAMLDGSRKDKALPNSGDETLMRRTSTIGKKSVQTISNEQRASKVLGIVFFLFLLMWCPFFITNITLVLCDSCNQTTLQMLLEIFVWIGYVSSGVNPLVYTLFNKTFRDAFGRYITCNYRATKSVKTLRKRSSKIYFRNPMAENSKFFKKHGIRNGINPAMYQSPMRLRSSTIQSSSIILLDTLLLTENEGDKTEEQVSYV
Assay type: cell membranes, CHO-K1, Membrane
With `CCO` [ALCOHOL] the IC50 was “Not Active”.
`C[C@H](C(=O)O)c1ccc2oc(-c3ccc(F)cc3)nc2c1` [FLUNOXAPROFEN] was tested, and the IC50 was “Not Active”.
`O=C(O)c1ccccc1` [BENZOIC ACID] was tested, and the IC50 was “Not Active”.
With `CN(CCOc1ccc(C[C@H](Nc2ccccc2C(=O)c2ccccc2)C(=O)O)cc1)c1ccccn1` the IC50 was “Not Active”.
With `O=c1[nH]cnc2c1ncn2[C@H]1CC[C@@H](CO)O1` [DIDANOSINE] the IC50 was “Not Active”.
`CC(C)(c1ccc(O)cc1)c1ccc(O)cc1` [BISPHENOL A] was tested, and the IC50 was “Not Active”.
With `ClC1=C(Cl)[C@]2(Cl)[C@@H]3[C@@H]4C[C@@H]([C@H]5O[C@@H]45)[C@@H]3[C@@]1(Cl)C2(Cl)Cl` [DIELDRIN] the IC50 was “Not Active”.
In the case of `C[C@]12CC[C@@H](O)C[C@@H]1CC[C@@H]1[C@@H]2CC[C@]2(C)C(=O)CC[C@@H]12` [ANDROSTERONE], the IC50 is reported as “Not Active”.

The compounds below were run against T3, 5-hydroxytryptamine receptor 1A (Rattus norvegicus, UniProt P19327). Details: cho-k1.
T3 sequence (P19327 whole entry): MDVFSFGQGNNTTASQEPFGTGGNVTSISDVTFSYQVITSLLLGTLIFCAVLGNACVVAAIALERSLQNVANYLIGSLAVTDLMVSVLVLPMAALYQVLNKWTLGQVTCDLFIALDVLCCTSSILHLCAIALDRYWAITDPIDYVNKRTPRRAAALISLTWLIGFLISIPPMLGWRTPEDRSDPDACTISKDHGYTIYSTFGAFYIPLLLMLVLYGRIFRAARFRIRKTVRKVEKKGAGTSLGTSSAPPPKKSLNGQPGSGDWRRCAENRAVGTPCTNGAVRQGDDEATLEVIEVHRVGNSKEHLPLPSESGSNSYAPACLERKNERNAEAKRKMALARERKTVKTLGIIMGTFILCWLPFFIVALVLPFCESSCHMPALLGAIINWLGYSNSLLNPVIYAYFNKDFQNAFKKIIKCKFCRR
Assay type: cell membranes, CHO-K1, Membrane
`CCO` [ALCOHOL] was tested, and the IC50 was “Not Active”.
In the case of `C[C@H](C(=O)O)c1ccc2oc(-c3ccc(F)cc3)nc2c1` [FLUNOXAPROFEN], the IC50 is reported as “Not Active”.
With `O=C(O)c1ccccc1` [BENZOIC ACID] the IC50 was “Not Active”.
In the case of `CN(CCOc1ccc(C[C@H](Nc2ccccc2C(=O)c2ccccc2)C(=O)O)cc1)c1ccccn1`, the IC50 is reported as “Not Active”.
In the case of `O=c1[nH]cnc2c1ncn2[C@H]1CC[C@@H](CO)O1` [DIDANOSINE], the IC50 is reported as “Not Active”.
`CC(C)(c1ccc(O)cc1)c1ccc(O)cc1` [BISPHENOL A] was tested, and the IC50 was “Not Active”.
`ClC1=C(Cl)[C@]2(Cl)[C@@H]3[C@@H]4C[C@@H]([C@H]5O[C@@H]45)[C@@H]3[C@@]1(Cl)C2(Cl)Cl` [DIELDRIN] was tested, and the IC50 was “Not Active”.
In the case of `C[C@]12CC[C@@H](O)C[C@@H]1CC[C@@H]1[C@@H]2CC[C@]2(C)C(=O)CC[C@@H]12` [ANDROSTERONE], the IC50 is reported as “Not Active”.
